Target: Serine/threonine-protein kinase PLK1 (Homo sapiens, UniProt P53350)
Experiment: Binding Assay
From the text: […] PDB fluorescence polarization competition binding assay using Plk.

Sequence of Serine/threonine-protein kinase PLK1 (P53350 whole entry): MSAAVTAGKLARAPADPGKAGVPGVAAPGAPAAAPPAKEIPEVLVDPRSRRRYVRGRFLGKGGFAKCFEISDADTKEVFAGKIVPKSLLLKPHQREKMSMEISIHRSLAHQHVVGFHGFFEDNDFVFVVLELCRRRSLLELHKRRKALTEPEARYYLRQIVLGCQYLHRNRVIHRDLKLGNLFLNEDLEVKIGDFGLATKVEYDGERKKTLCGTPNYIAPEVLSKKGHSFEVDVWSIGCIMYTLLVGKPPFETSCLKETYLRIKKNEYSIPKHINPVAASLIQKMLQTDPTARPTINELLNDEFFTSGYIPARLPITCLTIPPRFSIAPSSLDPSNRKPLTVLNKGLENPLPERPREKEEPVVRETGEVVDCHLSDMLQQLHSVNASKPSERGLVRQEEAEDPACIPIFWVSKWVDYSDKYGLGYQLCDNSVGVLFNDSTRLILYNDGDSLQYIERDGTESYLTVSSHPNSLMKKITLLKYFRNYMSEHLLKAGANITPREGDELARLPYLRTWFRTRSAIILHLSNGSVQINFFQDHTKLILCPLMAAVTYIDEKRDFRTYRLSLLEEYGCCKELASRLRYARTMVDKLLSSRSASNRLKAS

CC(=O)N(CCCCc1ccccc1)CC(=O)N[C@H](CC(C)C)C(=O)N[C@H](Cc1cnc[nH]1)C(=O)N[C@H](CO)C(=O)N[C@@H](C(N)=O)[C@@H](C)CP(=O)(O)O [Peptide-peptoid hybrid, 13]
IC50: 71 nM

Source: BindingDB's records for doi:10.1002/cbic.201200206 (Frederick National Laboratory For Cancer Research, 2012)
